Assay results from publication PMC6150379, “Novel Triazole Hybrids of Betulin: Synthesis and Biological Activity Profile” (Molecules : A Journal of Synthetic Chemistry and Natural …, 2017).
≈ marks a conversion by molar mass, not a printed value. Read-outs that look alike come from different tables or passages of the source.

Columns and labels:
[1] = system: T47D (human ductal carcinoma); assay: Cytotoxic activity, WST-1 assay; format: cell-based; settings: 72 h, Neg = negative in the concentration used; for IC50: Homo sapiens
SNB-19 (glioblastoma) = assay: Cytotoxic activity, WST-1 assay; format: cell-based, human; settings: SNB-19, 72 h, Neg = negative in the concentration used; for IC50: Homo sapiens
[2] = system: MCF-7 (human adenocarcinoma); assay: Cytotoxic activity, WST-1 assay; format: cell-based; settings: MCF-7, 72 h, Neg = negative in the concentration used; for IC50: Homo sapiens, MCF7
[3] = Cytotoxicity assay (MTT), determination of CC50; settings: human
Protocol: (§1) The cytotoxic effect of compounds on A549 cells was determined by the MTT method, as previously described [36]. The MTT assay is the enzyme-based method, which use the 3-(4,5-dimethylthiazol-2-yl)-2,5-diphenyltetrazolium bromide as a reductive coloring agent. Briefly, subconfluent monolayers of A549 cells (2 × 10^4 cell/well in Dulbecco’s Minimal Essential Medium (DMEM) supplemented with 5% fetal bovine serum (FBS), antibiotics (100 U/mL penicillin and 100 μg/mL streptomycin), and 2 mM L-glutamine (all from Sigma Aldrich, St. Louis, MO, USA) were incubated in 96-multi-well plates in the presence of dilutions of the compounds ranging from 100 μg/mL to 0.5 μg/mL, in triplicate for 48 h at 37 °C in a humidified atmosphere with 5% CO2. After 48 h, 20 μL of MTT solution (Promega, Madison, WI, USA) was added to each well, and the microplates were kept at 37 °C/5% CO2 for 3 h. Then, the solubilization/stop solution containing SDS-HCl (100 μL/well) was added, and the absorbance values of the wells were measured at 570 nm using a 96-well plate reader (Multiskan RC spectrophotometer, Thermo Labsystems, Waltham, MA, USA). Cell viability (%) was calculated for each concentration as Abs treated/Abs control × 100, where Abs treated and Abs control are the absorbance readings for the wells with and without the tested compounds, respectively. The 50% cytotoxic concentration (CC50) was defined as the concentration that reduced cell viability by 50% with respect to controls without drugs. The CC50 value was calculated from the corresponding dose–response curves.

[4] = system: cytopathogenic bovine orphan virus (ECBO) strain LCR-4; assay: Time of addition assay (post-adsorption), CPE/MTT in A549 cells; format: cell-based, cytopathogenic bovine orphan virus (BEV-1); settings: for EC50: A549; for antiviral activity: ECBO, A549 cells, CC20 concentration
[5] = system: SKOV-3 human ovarian cancer cell line; assay: Inhibition of tumor cell proliferation (MTT); settings: SK-OV-3, 96 h, read-out: Max. Inhibition (% of Control)
Protocol: Antiproliferative activities of the compounds were measured by the MTT assay using A549 cells and a human ovarian cancer cell line SKOV-3 (adenocarcinoma ATCC® HTB77™). A total of 2 × 10^3 cells in DMEM medium supplemented with 5% FBS were placed in each well of a 96-well flat-bottom plate. After 24 h of incubation at 37 °C in 5% CO2, the growth medium was replaced by media containing different concentrations of the derivatives. Control cultures received cisplatin 0.1–10 μg/mL, and blank wells contained 100 μL of growth medium with no cells. After 96 h of incubation, cell proliferation was determined by the colorimetric MTT assay (570 nm) reading for each concentration compared with the control. At least three replicates for each sample were used to determine the cell proliferation.

[6] = system: Colo-829 (human malignant melanoma); assay: Cytotoxic activity, WST-1 assay; format: cell-based; settings: Homo sapiens; Colo-829, 72 h; Neg = negative in the concentration used
[7] = system: C-32 (human amelanotic melanoma); assay: Cytotoxic activity, WST-1 assay; format: cell-based; settings: C-32, 72 h, Neg = negative in the concentration used; for IC50: Homo sapiens
[8] = system: human adenovirus type-5 (HAdV-5); assay: Time of addition assay, CPE/MTT in A549 cells; format: cell-based; settings: for antiviral activity: HAdV-5, A549 cells, CC20 concentration
[9] = system: vesicular stomatitis virus (VSV); format: cell-based; settings: A549 cells, CC20 concentration
[10] = system: herpes simplex virus type-1 (HSV-1); assay: Time of addition assay, CPE/MTT in A549 cells; format: cell-based; settings: HSV-1, A549 cells, CC20 concentration
[11] = system: Klebsiella pneumoniae ATCC 700603; assay: Broth microdilution method (MIC, MBC)
Protocol: (§2) The minimal inhibitory concentration (MIC) and minimal bactericidal concentration (MBC) were determined by the broth microdilution method, according to the Clinical and Laboratory Standards Institute [32, 33].
(§3) The antibacterial and antifungal activities of compounds were evaluated using the following strains: Staphylococcus aureus (ATCC 25923), Enterococcus faecalis (ATCC 29212), Escherichia coli (ATTC 25922), Pseudomonas aeruginosa (ATTC 27853), Klebsiella pneumoniae ATTC 700603), and Candida albicans (ATTC 10231). Cells were cultured for 24–48 h on Columbia agar or Sabouraud agar (C. albicans) in a saline solution (0.9% NaCl) and adjusted to a 0.5 McFarland density standard (1.5 × 10^8 CFU/mL). The final density of microorganisms was approximately 3 × 10^5 CFU/mL. The solutions of compounds were added to the medium at various concentrations (0.06 μM–2 mM). […] The experiments were performed in triplicate.

[12] = system: Escherichia coli ATCC 25922; assay: Broth microdilution method (MIC, MBC)
Protocol: as §2, §3

in vitro = settings: human
Protocol: as §1

[13] = selectivity index, ratio of CC50 to EC50, ECBO in A549 cells

| SMILES | IC50 ± SD [1] | IC50 (SNB-19 (glioblastoma)) | IC50 ± SD [2] | EC50 [4] | SI [4, 13] | IC50 [6] | IC50 [1] | IC50 [2] | antiviral activity [8] | antiviral activity [4] | antiviral activity [9] | IC50 [7] | antiviral activity [10] | melting point | CC50 at 48 h (in vitro) | inhibition at 50 µg/mL [5] | other results |
| --- | --- | --- | --- | --- | --- | --- | --- | --- | --- | --- | --- | --- | --- | --- | --- | --- | --- |
| C=C(C)[C@@H]1CC[C@]2(CO)CC[C@]3(C)[C@H](CC[C@@H]4[C@@]5(C)CC[C@H](O)C(C)(C)[C@@H]5CC[C@]43C)[C@@H]12 [Betulin 1, Betulin] | Neg | 17.7 ± 1.2 µM | Neg | 0.5 µg/mL (≈ 1.13 µM) | 37.0 | 15.3 ± 2.2 µM | – | – | – | – | – | – | – | – | – | – | CC50 at 48 h [3]: 18.5 µg/mL (≈ 41.8 µM); SI ([4]; selectivity index, ratio of CC50 to EC50, ECBO in A549 cells, listed as betulin 1): 37; inhibition at 2.5 µg/mL [5]: 30%; IC50 ± SD [7]: Neg |
| C#CC(=O)OC[C@]12CCC(C(=C)C)C1C1CCC3[C@@]4(C)CC[C@H](O)C(C)(C)C4CC[C@@]3(C)[C@]1(C)CC2 (some centres unmarked) [Compound 3, 28-O-propynoylbetulin] | – | 4.2 ± 0.3 µM | – | – | – | 1.7 ± 0.08 µM | 110.8 ± 0.9 µM | 102 ± 1.4 µM | did not exhibit antiviral activity | did not exhibit antiviral activity | did not exhibit antiviral activity | 16.7 ± 0.8 µM | did not exhibit antiviral activity | – | – | – | – |
| C#CC(=O)OC[C@]12CCC(C(=C)C)C1C1CCC3[C@@]4(C)CC[C@H](OC(=O)C#C)C(C)(C)C4CC[C@@]3(C)[C@]1(C)CC2 (some centres unmarked) [Compound 4, 3,28-O,O’-di(propynoyl)betulin] | Neg | 13.1 ± 1.3 µM | Neg | – | – | 9.7 ± 1.5 µM | – | – | did not exhibit antiviral activity | did not exhibit antiviral activity | did not exhibit antiviral activity | 121 ± 4.1 µM | did not exhibit antiviral activity | – | – | – | – |
| C=C(C)C1CCC2(COC(=O)c3cn(C4CC(n5cc(C)c(=O)[nH]c5=O)OC4CO)nn3)CCC3(C)C(CCC4C5(C)CCC(O)C(C)(C)C5CCC43C)C12 (centres unmarked) [Compound 5e] | total decay of cytotoxic activity and Neg | – | Neg | 1 µg/mL (≈ 1.31 µM) | 10.3 | 35.1 ± 6.2 µM | – | – | – | – | – | 75.2 ± 3.7 µM | – | 181 to 185 °C | 10.3 µg/mL (≈ 13.5 µM) | 75% | IC50 ± SD (SNB-19 (glioblastoma)): Neg; MBC:MIC ratio [11]: > 4; MBC ([11]; ATCC700603): 3.9 µM (≈ 2.97 µg/mL); MIC ([11]; ATCC700603, 18 h): 0.95 µM (≈ 0.724 µg/mL); bactericidal capacity ([11]; judged from MBC:MIC ratio): bacteriostatic; MBC ([12]; ATCC25922): 7.8 µM (≈ 5.94 µg/mL); MIC ([12]; ATCC25922, 18 h): 1.95 µM (≈ 1.49 µg/mL); bactericidal capacity ([12]; judged from MBC:MIC ratio): bactericidal activity; SI ([8]; anti-HAdV-5 activity, ratio of CC50 to EC50, data not shown): 6 |
| C=C(C)C1CC[C@]2(COC(=O)c3cn(CCCO)nn3)CC[C@]3(C)C(CCC4[C@@]5(C)CC[C@H](OC(=O)c6cn(CCCO)nn6)C(C)(C)C5CC[C@]43C)C12 (some centres unmarked) [Compound 6h, 3,28-O,O’-Di[1-(3-hydroxypropyl-1H-1,2,3-triazol-4-yl)carbonyl]betulin] | – | 68.3 ± 0.9 µM | – | 0.25 µg/mL (≈ 0.334 µM) | – | 6.5 ± 1 µM | 62.4 ± 1.1 µM | 11.7 ± 1.2 µM | essentially inactive | – | essentially inactive | 9.1 ± 0.2 µM | essentially inactive | 172 to 176 °C | 29.8 µg/mL (≈ 39.8 µM) | 70% | – |
| NC(=O)c1ncn([C@@H]2O[C@H](CO)[C@@H](O)[C@H]2O)n1 [Ribavirin, reference compound] | – | – | – | 10 µg/mL (≈ 40.9 µM) | – | – | – | – | – | – | – | – | – | – | – | – | CC50 at 48 h ([3]; A549 cells): 100 µg/mL (≈ 409 µM); SI [4]: 10.0; inhibition at 1.5 µg/mL [5]: 30% |
